Measured values published in patent publication US10617664B2, “Brain derived PPARα ligands” (Rush University Medical Center, priority 2015, dated 2020).

How the values were obtained:
PPARα LBD = biological target: T1, PPARα LBD (Homo sapiens, UniProt Q07869); test: TR-FRET PPAR-alpha coactivator assay (Lanthascreen); format: biochemical; conditions: curve fit FIG. 13
T1 construct: GST-tagged recombinant PPARα LBD protein; purchased PV4684
T1 sequence (Q07869 239-466 limits assumed): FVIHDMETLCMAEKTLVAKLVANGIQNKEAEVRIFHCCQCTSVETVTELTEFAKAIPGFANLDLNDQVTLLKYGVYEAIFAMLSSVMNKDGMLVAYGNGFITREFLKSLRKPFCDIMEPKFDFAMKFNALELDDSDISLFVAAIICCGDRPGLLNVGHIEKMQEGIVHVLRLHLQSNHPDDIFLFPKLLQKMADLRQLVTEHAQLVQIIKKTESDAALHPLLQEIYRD
Method: TR-FRET assay was performed using Lanthascreen TR-FRET PPAR-alpha coactivator assay kit (Cat # PV4684). In this assay, different doses of statin drugs were incubated with GST-tagged recombinant PPARα LBD protein, Terbium (Tb)-tagged anti GST antibody and Fluorescein (FL)-tagged PGC1α as directed in the manufacturer's protocol. The entire reaction was set up in corning 384 well plates by an automated robotic injector. Each plate was centrifuged, incubated in a dark place for 30 mins, and then analyzed “molecular devices analyst” machine equipped with dichroic mirror. The excitation wavelength and emission wavelength were set at 340 nm and 540 nm wavelength respectively.

astrocytes = test: MTT cell viability in PPRE-luciferase transfected astrocytes; format: cell-based, mouse; conditions: higher concentrations
Method: (§1) Astrocytes plated at 60-70% confluence were transfected with tk-PPREx3-Luc, a PPRE-dependent luciferase reporter construct. After 24 h of transfection, cells were treated with different concentrations of HEX (FIG. 10A), OCT (FIG. 10B) and HMB (FIG. 10C) for 4 h followed by monitoring luciferase activity. Under similar experimental condition, MTT was performed to understand the effect of these ligands on cell viability (FIG. 10D, HEX; FIG. 10E, OCT; FIG. 10F, HMB). Results are mean±SD of three independent experiments. ^ap<0.001 vs. control. Ppara-null astrocytes were transduced with lentivirions containing empty vector (FIG. 10G), FL-Ppara (FIG. 10H), Y314D-Ppara (FIG. 10I), Y464D-Ppara (FIG. 10J), and Y314D/Y464D-Ppara (FIG. 10K) for 48 h followed by transfection with tk-PPREx3-Luc. After 24 h of transfection, cells were treated with different doses of HEX, OCT and HMB for 4 h followed by monitoring luciferase activity. PPRE luciferase activity was assayed in Ppara-null astrocytes transduced with lentivirions containing empty vector (FIG. 10L), FL-Ppara (FIG. 10M), Y314D-Ppara (FIG. 10N), Y464D-Ppara (FIG. 10O), and Y314D/Y464D-Ppara (FIG. 10P) after treatment with different doses of WY14643, fenofibrate, and clofibrate. PPRE luciferase activity was assayed in primary hippocampal neurons transduced with lentivirions containing empty vector (FIG. 10Q), FL-Ppara (FIG. 10R), Y314D-Ppara (FIG. 10S), Y464D-Ppara (FIG. 10T), and Y314D/Y464D-Ppara (FIG. 10U) after treatment with different doses of HEX, OCT and HMB. Results are mean±SD of three independent experiments. ^ap<0.001 vs. control.

[1] = test system: PPRE-driven luciferase activity; test: PPRE-luciferase assay in Ppara-null astrocytes transduced with Ppara constructs; format: cell-based, mouse; conditions: Ppara-null astrocytes (empty vector)
Method: as §1

NR2A, GluR1 and CREB = test: Immunoblot and immunofluorescence of synaptic molecules in Ppara-null hippocampal neurons; format: cell-based, mouse; conditions: 5 μM HEX, 5 μM OCT, 50 μM HMB
Method: (§2) (FIG. 17A) Immunoblot analyses followed by densitometric analyses of NR2A (FIG. 17B), GluR1 (FIG. 17C) and CREB (FIG. 17D) were performed in Ppara-null and WT hippocampal neurons treated with 5 μM HEX, 5 μM OCT and 50 μM HMB. Data are mean±SD of three different experiments. ^ap<0.05 versus WT-control. Immunocytochemical analyses of NR2A (FIG. 17E) and GluR1 (FIG. 17F) in WT and Ppara-null hippocampal neurons treated with HEX, OCT and HMB. Hippocampal neurons were transduced with lenti-GFP for 48 h followed by treatment with different ligands. Immunoblot analyses followed by relative densitometric analyses of CREB in Ppara-null hippocampal neurons transduced with lentivirions containing different Ppara constructs followed by treatment with HEX (FIG. 17G-H), OCT (FIG. 17I-J) and HMB (FIG. 17K-L). Bands were scanned and presented as relative to control (FIG. 17H, HEX; FIG. 17J, OCT; FIG. 17L, HMB). Data are mean±SD of three different experiments. ^ap<0.05 vs FLPpara control.
Isolation of Mouse Hippocampal Neurons: Hippocampal neurons were isolated from fetuses (E18) of pregnant female Ppara-null and strain-matched WT littermate mice as described by us^6,13,35-36 with some modifications. Briefly, dissection and isolation procedures were performed in an ice-cold, sucrose buffer solution (sucrose 0.32 M, Tris 0.025 M; pH 7.4)^37. The skin and the skull were carefully removed from the brain by scissors followed by peeling off the meninges by a pair of fine tweezers. Next, a fine incision was made in the middle line around the circle of Willis and medial temporal lobe was opened up. Hippocampus was isolated as a thin slice of tissue located near the cortical edge of medial temporal lobe. Hippocampal tissues isolated from all fetal pups (n>10) were combined together and homogenized with 1 ml of trypsin for 5 minutes at 37° C. followed by neutralization of trypsin. The single cell suspension of hippocampal tissue was plated in the poly-D-lysine pre-coated 75 mm flask. Five min after plating, the supernatants were carefully removed and replaced with complete neurobasal media. The next day, 10 μM AraC was added to remove glial contamination in the neuronal culture. The pure cultures of hippocampal neurons were allowed to differentiate fully for 9-10 days before treatment^35,36,38.
(§3) For whole-cell and tissue lysates, samples were homogenized in RIPA buffer containing protease and phosphatase inhibitors (Sigma), passed 10 times through a 26-gauge needle, rotated end over end for 30 min at 4° C., and centrifuged for 10 min at 18,000×g. The supernatant was aliquoted and stored at −80° C. until use. Protein concentrations were determined using a NanoDrop 2000 (Thermo Fisher), and 15-30 μg sample was heat-denatured and resolved on 10% or 12% polyacrylamide-SDS gels, transferred to 0.45 μm nitrocellulose membranes under semidry conditions (15V for 12 min). Membranes were blocked for 1 h with blocking buffer (Li-Cor), incubated with primary antibodies overnight at 4° C. under shaking conditions, washed, incubated with IR-dye-labeled secondary antibodies (1:17,000; Li-Cor) for 45 min at room temperature, washed, and visualized with the Odyssey Infrared Imaging System (Li-Cor). Blots were converted to grayscale and then binary, analyzed using Fiji, and normalized to appropriate loading controls.

CREB = test: Immunoblot of CREB in Ppara-null hippocampal neurons transduced with Ppara constructs; format: cell-based, mouse
Method: as §2, §3

EC50 (PPARα LBD) | PPRE-driven luciferase activity [1] | SMILES | cytotoxicity (MTT) (astrocytes) | expression of CREB (NR2A, GluR1 and CREB) | expression of NR2A (NR2A, GluR1 and CREB) | expression of CREB (CREB; FL-Ppara) | expression of CREB (CREB; lenti-Y314D-Ppara) | expression of CREB (CREB; lenti-Y464D-Ppara) | expression of CREB (CREB; lenti-Y464D/Y314D-Ppara)
4.36 µM | remained unable to induce | CCCCCCCCCCCCCCCC(N)=O [HEX, hexadecanamide] | significant level of cytotoxicity | not | not | stimulated | only partially restored | remained unable to increase | remained unable to increase
31.6 µM | remained unable to induce | CCOC(=O)C(C)(C)C(C)O (stereo not drawn) [HMB] | significant level of cytotoxicity | not | not | stimulated | only partially restored | remained unable to increase | remained unable to increase
4.31 µM | remained unable to induce | CCCCCCCCC=CCCCCCCCC(N)=O [OCT, 9-octadecenamide] | significant level of cytotoxicity | not | not | stimulated | only partially restored | remained unable to increase | remained unable to increase
